Literature values, collected in paper PMC8287861 (Frontiers in Microbiology, 2021).
Values after ≈ are worked out from the molar mass of the structure shown.

Legend:
Parameters in all cases: method as in Lomovskaya et al. (2020b)
[1] = system: PAM4175 pUCP24 vector; conditions: ref Lomovskaya et al. (2020b)
[2] = system: PAM4886 GES-1; conditions: PAM4886, GES-1, class A; ref Lomovskaya et al. (2020b)
[3] = system: PAM4800 GES-19; conditions: PAM4800, GES-19, class A; ref Lomovskaya et al. (2020b)
[4] = system: PAM4840 OXY-6-2; conditions: PAM4840, OXY-6-2, class A; ref Lomovskaya et al. (2020b)
[5] = system: PAM4874 SHV-12; conditions: PAM4874, SHV-12, class A; ref Lomovskaya et al. (2020b)
[6] = system: PAM4878 TEM-10; conditions: PAM4878, TEM-10, class A; ref Lomovskaya et al. (2020b)
[7] = system: PAM4938 VEB-9; conditions: PAM4938, VEB-9, class A; ref Lomovskaya et al. (2020b)
[8] = system: PAM4135 KPC-2; conditions: PAM4135, KPC-2, class A-CARB; ref Lomovskaya et al. (2020b)
[9] = system: PAM4676 BKC-1; conditions: PAM4676, BKC-1, class A-CARB; ref Lomovskaya et al. (2020b)
[10] = system: PAM4745 P99; conditions: PAM4745, P99, class C; ref Lomovskaya et al. (2020b)
[11] = system: PAM4869 PDC-1; conditions: PAM4869, PDC-1, class C; ref Lomovskaya et al. (2020b)
[12] = system: PAM4790 OXA-10; conditions: PAM4790, OXA-10, class D; ref Lomovskaya et al. (2020b)
[13] = system: PAM4217 OXA-48; conditions: PAM4217, OXA-48, class D-CARB; ref Lomovskaya et al. (2020b)
[14] = system: PAM4875 OXA-23; conditions: PAM4875, OXA-23, class D-CARB; ref Lomovskaya et al. (2020b)
[15] = system: PAM4876 OXA-72; conditions: PAM4876, OXA-72, class D-CARB; ref Lomovskaya et al. (2020b)
[16] = system: PAM4877 OXA-58; conditions: PAM4877, OXA-58, class D-CARB; ref Lomovskaya et al. (2020b)
[17] = system: PAM4179 NDM-1; conditions: PAM4179, NDM-1, class B1; ref Lomovskaya et al. (2020b)
[18] = system: PAM4917 NDM-7; conditions: PAM4917, NDM-7, class B1; ref Lomovskaya et al. (2020b)
[19] = system: PAM4881 VIM-7; conditions: PAM4881, VIM-7, class B1; ref Lomovskaya et al. (2020b)
[20] = system: PAM4887 IMP-1; conditions: PAM4887, IMP-1, class B1; ref Lomovskaya et al. (2020b)
[21] = system: PAM4198 IMP-15; conditions: PAM4198, IMP-15, class B1; ref Lomovskaya et al. (2020b)
[22] = system: PAM4883 GIM-1; conditions: PAM4883, GIM-1, class B1; ref Lomovskaya et al. (2020b)
[23] = system: PAM4880 L1; conditions: PAM4880, L1, class B3; ref Lomovskaya et al. (2020b)
[24] = system: PAM4938 VCC-1; conditions: PAM4938, VCC-1, class A-CARB; ref Lomovskaya et al. (2020b)
[25] = system: PAM4827 OXA-1; conditions: PAM4827, OXA-1, class D; ref Lomovskaya et al. (2020b)

SMILES | MIC [1] | MIC [2] | MIC [3] | MIC [4] | MIC [5] | MIC [6] | MIC [7] | MIC [8] | MIC [9] | MIC [10] | MIC [11] | MIC [12] | MIC [13] | MIC [14] | MIC [15] | MIC [16] | MIC [17] | MIC [18] | MIC [19] | MIC [20] | other results
CC(C)(O/N=C(\C(=O)N[C@@H]1C(=O)N2C(C(=O)[O-])=C(C[n+]3ccccc3)CS[C@H]12)c1csc(N)n1)C(=O)O [Ceftazidime, ceftazidime] | 0.25 µg/mL (≈ 0.457 µM) | 64 µg/mL (≈ 117 µM) | >64 µg/mL | 0.5 µg/mL (≈ 0.915 µM) | >64 µg/mL | >64 µg/mL | 256 µg/mL (≈ 468 µM) | 16 µg/mL (≈ 29.3 µM) | 3 µg/mL (≈ 5.49 µM) | 64 µg/mL (≈ 117 µM) | 16 µg/mL (≈ 29.3 µM) | 0.25 µg/mL (≈ 0.457 µM) | 0.25 µg/mL (≈ 0.457 µM) | 0.25 µg/mL (≈ 0.457 µM) | 0.25 µg/mL (≈ 0.457 µM) | 0.25 µg/mL (≈ 0.457 µM) | >64 µg/mL | >64 µg/mL | 0.5 µg/mL (≈ 0.915 µM) | >64 µg/mL | MIC [21]: 64 µg/mL (≈ 117 µM); MIC [22]: >64 µg/mL; MIC [23]: 64 µg/mL (≈ 117 µM)
CCN1CCN(C(=O)N[C@@H](C(=O)N[C@@H]2C(=O)N3[C@@H]2SC(C)(C)[C@@H]3C(=O)O)c2ccccc2)C(=O)C1=O [Piperacillin, piperacillin] | 0.125 µg/mL (≈ 0.242 µM) | 4 µg/mL (≈ 7.73 µM) | 8 µg/mL (≈ 15.5 µM) | >64 µg/mL | >64 µg/mL | 32 µg/mL (≈ 61.8 µM) | 16 µg/mL (≈ 30.9 µM) | >64 µg/mL | 32 µg/mL (≈ 61.8 µM) | 64 µg/mL (≈ 124 µM) | >64 µg/mL | 0.125 µg/mL (≈ 0.242 µM) | 16 µg/mL (≈ 30.9 µM) | 16 µg/mL (≈ 30.9 µM) | 16 µg/mL (≈ 30.9 µM) | 4 µg/mL (≈ 7.73 µM) | 64 µg/mL (≈ 124 µM) | 32 µg/mL (≈ 61.8 µM) | 2 µg/mL (≈ 3.86 µM) | 1 µg/mL (≈ 1.93 µM) | MIC [24]: 16 µg/mL (≈ 30.9 µM); MIC [25]: 4 µg/mL (≈ 7.73 µM); MIC [21]: 0.5 µg/mL (≈ 0.966 µM); MIC [22]: >64 µg/mL; MIC [23]: 32 µg/mL (≈ 61.8 µM)
